Series [1] relates to cochlear outer hair cells (OHC). The experiment in a line: Outer hair cell survival after cisplatin (cochleograms from whole-mount fixed cochleae). Format: in vivo, female Wistar rats. As to conditions: 14 days of treatment after cisplatin.
Method: Two days after baseline audiometry (ABR and DPOAE measurements), oral treatment was initiated in both groups 15 minutes before 8 mg/kg cisplatin infusion during 30 minutes under isoflurane anesthesia. On D14, ABR and DPOAE measurements were performed to evaluate ABR threshold shifts and DPOAE amplitude loss relative to baseline and the temporal bones of each animal were subsequently preserved with PFA fixation for histology (FIG. 5).
To evaluate the effect of (+) azasetron on outer hair cells (OHC) survival after cisplatin administration at an ototoxic dose, cochleograms of surviving OHCs were constructed from whole-mount fixed cochleae.
For series [2], the system named is unilateral vestibular dysfunction induced by intratympanic kainic injection. Kind of series: Kainate model of peripheral excitotoxic vestibular injury: spontaneous nystagmus and roll angle deviation. Format: in vivo, female Long-Evans. The following applies: 5.6 mg/kg intraperitoneal daily for 3 days. As to the method:
The capacity of (+)-azasetron besylate to protect against lesions in the peripheral vestibular system was assessed using the kainate model of peripheral excitotoxic injury. Following unilateral, transtympanic injection of the excitotoxic kainic acid leading to the swelling, retraction and uncoupling of synapses between vestibular sensory hair cells and primary afferent neurons, baseline recordings of spontaneous nystagmus (pathological eye movements caused by a deficit of the vestibuloculomotor reflex) and postural deviations are performed before randomization to treatment groups. Recordings were repeated daily for 3 days, then again at D6 and D13 after lesion induction.
Following lesion induction and baseline recordings at t=1h, female Long-Evans were randomized to receive intraperitoneal injections of placebo (n=18) or 5.6 mg/kg (+)-azasetron besylate daily for 3 days (t=1/24/[…]). Recording of spontaneous nystagmus and postural deviations were repeated at 2/4/6/24/25/48/49 hours and D6/D13 after initial lesion induction (FIG. 9).

Series [3] in a line: Pharmacokinetics study: exposure in inner ear, perilymph and tail plasma after single oral dose. Format: in vivo, Wistar rats. The following applies: for AUC: po, 10 mg/kg, 10 mg/kg p.o., per-interval AUC of azasetron free-base. The text has this: The 72 male Wistar rats received on 28 Jan. 2016 from Janvier (Janvier, Le Genest-St-Isle) were assigned to the study. They were divided in 3 groups of 24 animals each, one group per test article. Each group was divided in […] subgroups according to the 6-termination time-points.
72 Wistar rats were subjected to oral single dose administration of the test article, racemic azasetron hydrochloride, azasetron hydrochloride (+) or azasetron hydrochloride (−), and sacrificed at different time-points to assess the exposure of the test article in the inner ear, perilymph, and plasma. • Group racemic azasetron: 24 male Wistar, 4 rats per time-point: 10 mg/kg azasetron HCl dissolved in NaCl 0.9%. Administrated as 5 mL/kg p.o.; • Group azasetron (+): 24 male Wistar, 4 rats per time-point: 10 mg/kg (+)-azasetron HCl dissolved in NaCl 0.9%. Administrated as 5 mL/kg p.o.; • Group azasetron (−): 24 male Wistar, 4 rats per time-point: 10 mg/kg (−)-azasetron HCl dissolved in NaCl 0.9%. Administrated as 5 mL/kg p.o.
There were 6 termination time-points for each test article. At time-points 15/30/60/120/240/480 minutes after administration: peripheral plasma from the tail was sampled. The animals were sacrificed by i.v. administration of 0.25 mL/rat of a 160 mg/mL pentobarbital solution. Following sacrifice, the heart blood and both tympanic bullas (left and right) were sampled.
Both tympanic bullas (left and right) were collected, however, only the left one was used for the perilymph and inner ear analysis. The right bulla was stored at −20° C. for future needs when required. For animal IDs 1 and 4, the right bulla was used for the sampling of perilymph and inner ear.
The left bulla was dissected fresh. Briefly, the bulla was opened via the auditory opening to reveal the bone surrounding the cochlea after which the tip of the bone was removed with forceps and a 10 μL pipette tip was inserted to withdraw perilymph.
Upon exposure of the tip of the cochlea, 2 μL of perilymph (fluid) could be recovered from the bulla. The perilymph was brought to 10 μL by the addition of 8 μL water, and then extract via the addition of 30 μL of acetonitrile. After that, the samples were centrifuged and the supernatant was transferred to a glass vial appropriate for the HPLC-MS auto-sampler.
Following recovering of the perilymph, the bones of the inner ear and cochlea components were removed with fine forceps and added to a tared Eppendorf tube. The collection was weighed and brought to 10 mg with the addition of water and placed on ice until extraction. 30 μL of acetonitrile was added and the tubes were incubated in an ultrasound bath, after which they were centrifuged and the supernatant was transferred to a glass vial appropriate for the HPLC-MS auto-sampler. In the process or removing the bones of the inner ear, they were finely distributed in the media and broken by forceps. (Due to the very low volume of the tissue and its fine structure, separate grinding is considered risky vs the potential losses to plastic and media. The materials are very fine in nature and the bone particles are small thus providing only short interfaces to media. The absence of fat and the incubation in solvent is intended to provide sufficient solubility of active ingredient).
The acetonitrile used in the sample preparation for bio-analysis contained the internal standard for the HPLC-MS analysis.
30 μL acetonitrile including the internal standard were added to each 10 μL plasma sample. After adding the acetonitrile, the samples were mixed by vortex and further centrifuged. The supernatant was transferred to a glass vial appropriate for the HPLC-MS auto-sampler.
The LC system comprised an Agilent 1260 liquid chromatography equipped with a binary pump and a column oven, together with a PAL HTS-xt auto-sampler. It is linked to the AB SCIEX TRIPLE QUADTM 4500 (triple-quadrupole) instrument with an ESI interface and a switching valve integrated (Mass spectrometric analysis). […]

The record followed here is patent US11612605B2, “(+)-azasetron for use in the treatment of ear disorders” (SENSORION, priority 2016, dated 2023).

Read-outs that look alike come from different tables or passages of the source.

As for `CN1C(=O)COc2c(C(=O)NC3CN4CCC3CC4)cc(Cl)cc21.O=S(=O)(O)c1ccccc1` (single isomer, unassigned; (+)) [(+)-azasetron besylate], in series [1], the “conservation of OHCs in the basal turn of the cochlea versus placebo” value was “up to 11 fold”. Besides, in series [1] (p<0.001), the “number of surviving OHCs versus placebo” value was “significantly higher”. Further, in series [2] (p<0.001), the “improvement (reduction) of roll angle deviation (postural head tilt) versus placebo” value is 30-62%. Further, in series [2] (p=0.048), the “improvement of spontaneous nystagmus versus placebo” value is reported as 6-48%.

In general, AUC refers to concentration integrated over time. As to `CN1C(=O)COc2c(C(=O)N[C@@H]3CN4CCC3CC4)cc(Cl)cc21` [(−)-azasetron], in series [3] (10 mg/kg p.o. single dose), the “Total AUC Inner ear” value amounted to 27829 nM·min. For the same molecule, in series [3] (10 mg/kg p.o. single dose), the “Total AUC Perilymph” value came out at 11901 nM·min. In addition, the “Total AUC Tail plasma” value in series [3] (10 mg/kg p.o. single dose) turned out to be 65448 nM·min. In addition, in series [3] (male, Wistar, rat, inner ear, oral, 10 mg/kg p.o. single dose, Time 15 (min), read-out: Average Inner ear concentration (ng azasetron free-base/g tissue)), the concentration at 15 min was 29 ng/g. The concentration at 30 min in series [3] (male, Wistar, rat, inner ear, oral, 10 mg/kg p.o. single dose, Time 30 (min), read-out: Average Inner ear concentration (ng azasetron free-base/g tissue)) is 27 ng/g. Also, the concentration at 60 min in series [3] (male, Wistar, rat, inner ear, oral, 10 mg/kg p.o. single dose, Time 60 (min), read-out: Average Inner ear concentration (ng azasetron free-base/g tissue)) was 8 ng/g. Moreover, the concentration at 120 min in series [3] (male, Wistar, rat, inner ear, oral, 10 mg/kg p.o. single dose, Time 120 (min), read-out: Average Inner ear concentration (ng azasetron free-base/g tissue)) is 46 ng/g. For the same molecule, the concentration at 240 min in series [3] (male, Wistar, rat, inner ear, oral, 10 mg/kg p.o. single dose, Time 240 (min), read-out: Average Inner ear concentration (ng azasetron free-base/g tissue)) is 21 ng/g. For the same molecule, the concentration at 480 min in series [3] (male, Wistar, rat, inner ear, oral, 10 mg/kg p.o. single dose, Time 480 (min), read-out: Average Inner ear concentration (ng azasetron free-base/g tissue)) is 3 ng/g. Further, the AUC is 0.0102 µM·h in series [3] (male, Wistar, rat, inner ear, Time 15 (min), read-out: Inner ear AUC (converted)); 0.0198 µM·h in series [3] (male, Wistar, rat, inner ear, Time 30 (min), read-out: Inner ear AUC (converted)); 0.0247 µM·h in series [3] (male, Wistar, rat, inner ear, Time 60 (min), read-out: Inner ear AUC (converted)); 0.0772 µM·h in series [3] (male, Wistar, rat, inner ear, Time 120 (min), read-out: Inner ear AUC (converted)); 0.193 µM·h in series [3] (male, Wistar, rat, inner ear, Time 240 (min), read-out: Inner ear AUC (converted)); 0.139 µM·h in series [3] (male, Wistar, rat, inner ear, Time 480 (min), read-out: Inner ear AUC (converted)). In addition, the AUC in series [3] (male, Wistar, rat, perilymph, Time 15 (min), read-out: Perilymph AUC (converted)) is 0.00507 µM·h; in series [3] (male, Wistar, rat, perilymph, Time 30 (min), read-out: Perilymph AUC (converted)), 0.0102 µM·h; in series [3] (male, Wistar, rat, perilymph, Time 60 (min), read-out: Perilymph AUC (converted)), 0.015 µM·h; in series [3] (male, Wistar, rat, perilymph, Time 120 (min), read-out: Perilymph AUC (converted)) it was 0.0363 µM·h; in series [3] (male, Wistar, rat, perilymph, Time 240 (min), read-out: Perilymph AUC (converted)), 0.0747 µM·h; in series [3] (male, Wistar, rat, perilymph, Time 480 (min), read-out: Perilymph AUC (converted)), 0.0571 µM·h. The AUC in series [3] (male, Wistar, rat, tail plasma, Time 15 (min), read-out: Tail plasma AUC (converted)) is 0.0203 µM·h; in series [3] (male, Wistar, rat, tail plasma, Time 30 (min), read-out: Tail plasma AUC (converted)), 0.034 µM·h; in series [3] (male, Wistar, rat, tail plasma, Time 60 (min), read-out: Tail plasma AUC (converted)), 0.0515 µM·h; in series [3] (male, Wistar, rat, tail plasma, Time 120 (min), read-out: Tail plasma AUC (converted)), 0.17 µM·h; in series [3] (male, Wistar, rat, tail plasma, Time 240 (min), read-out: Tail plasma AUC (converted)), 0.416 µM·h; in series [3] (male, Wistar, rat, tail plasma, Time 480 (min), read-out: Tail plasma AUC (converted)), 0.4 µM·h.
